Results published in patent US4542219A, “Certain heterocyclic ammonio phosphate derivatives” (Takeda Chemical Industries, Ltd., priority 1981, dated 1985).
Like-named read-outs stand apart in the source and are kept apart here.

Key:
Sclerotinia sclerotiorum = experiment: Antifungal activity, serial dilution method; assay type: cell-based; conditions: kidney bean stem rot, 1% glucose-bouillon agar
Penicillium niger = experiment: Antifungal activity, serial dilution method; assay type: cell-based
[1] = test system: Helminthosporium sigmordeum; experiment: Antifungal activity, serial dilution method; assay type: cell-based
Botrytis cinerea = experiment: Antifungal activity, serial dilution method; assay type: cell-based
Helminthosporium oryzae = experiment: Antifungal activity, serial dilution method; assay type: cell-based; conditions: Bipolaris oryzae
Cryptococcus neoformans = experiment: Antimycotic activity, paper disk zone of inhibition; assay type: cell-based; conditions: 48 h, 3 mg/ml, 8 mm paper disk, 37° C. for 2 days, read-out: Diameter of inhibition zone
Protocol: The antimycotic activity values presented in Table 2 were assayed using Cryptococcus neoformans as the test organism. Thus, a paper disk (8 mm dia.) was dipped into an aqueous solution of the test compound (3 mg/ml), dried in the air and set in position on an agar medium. The medium was incubated at 37° C. for 2 days, at the end of which time the diameter of the zone of inhibition was measured. When the diameter of the zone was not larger than 8 mm, 8-10 mm, 10-20 mm and larger than 20 mm, the activity was judged as -, ±, + and ++, respectively.

Tetrahymena pyriformis W = experiment: Antiprotozoal activity, broth dilution method; assay type: cell-based; conditions: 28° C. for 44 to 48 hours, pH 7.0
Protocol: The antiprotozoal activity values given in Table 2 were assayed using Tetrahymena pyriformis W as the test organism and an assay medium composed of 20 g tryptose peptone (Difco), 1 g yeast extract, 2 g glucose, 1000 ml distilled water and 10 ml 1 M phosphate buffer, pH 7.0. Thus, the strain was incubated at 28° C. for 44 to 48 hours and the minimal inhibitory concentration (MIC) of the compound (I) was determined by the broth dilution method.

Aspergillus niger = experiment: Antifungal activity, serial dilution method; assay type: cell-based
Saccharomyces cerevisiae = experiment: Antifungal activity, serial dilution method; assay type: cell-based
Pyricularia oryzae = experiment: microbe, parasite or virus in culture; assay type: cell-based
[2] = test system: Colletotrichum lagenarium; experiment: Antifungal activity, serial dilution method; assay type: cell-based; conditions: Colletotrichum orbiculare
[3] = Hemolysis test (method of Gottfried et al); assay type: cell-based; conditions: erythrocytes; in the presence of 5% human albumin; read-out: 50% hemolytic concentration
From the text: The compound (I) is of relatively low toxicity and has generally low hemolytic activity. […] In these compounds (I), the influence of the length of chain R^1 varies with the other moiety of the molecule.

[4] = test system: human promyelocytic leukemia cell HL-60; experiment: Cell proliferation inhibition and differentiation induction, human promyelocytic leukemia cell HL-60 (Test Example 1): proliferation; assay type: cell-based; conditions: HL-60, 120 h, 5 days' culture, read-out: Cell proliferation inhibitory activity GD50
Protocol: The cell proliferation inhibitory activity (GD50) and differentiation inducing activity of the compound of this invention against human promyelocytic leukemia cell HL-60 are shown in Table 1. The assays were performed by the method described for example in R. Gallo et al, Blood. vol. 54, No. 3, 713 (1979).

MM46 mammarian carcinoma = experiment: Antitumor activity against MM46 mammarian carcinoma; assay type: in vivo, C3 H/He mice; conditions: 250 μg/mouse/day, once daily, eight days in total; control average 14.2 days
Protocol: MM46 mammarian carcinoma cells (1×10^5) was transplanted intraperitoneally to each of five C3 H/He mice group. From five days to two days before the transplantation and from two day to five days after the transplantation, eight days in total. 250 μg/mouse/day of the test compound was administered to the test group, once daily. Survival period of three of the test group was not less than 60 days, and that of the remaining two was 23 days in average. On the other hand, the average survival period of mice of the control group was 14.2 days.

sarcoma 180 = experiment: Antitumor activity against sarcoma 180; assay type: in vivo, ICR mice; conditions: 500 μg/mouse
[5] = blue mold, 1% glucose-bouillon agar, read-out: MIC
[6] = rice stem rot, 1% glucose-bouillon agar, read-out: MIC
[7] = black mold, 1% glucose-bouillon agar, read-out: MIC
[8] = brewer's yeast, 1% glucose-bouillon agar, read-out: MIC
[9] = cucumber anthracnose, 1% glucose-bouillon agar, read-out: MIC
[10] = gray mold, 1% glucose-bouillon agar, read-out: MIC

| SMILES | MIC (Sclerotinia sclerotiorum) | MIC (Helminthosporium oryzae) | zone of inhibition at 3000 µg/mL (Cryptococcus neoformans) | MIC (Tetrahymena pyriformis W) | MIC (Aspergillus niger; [7]) | MIC (Pyricularia oryzae) | IC50 [4] | also measured |
| --- | --- | --- | --- | --- | --- | --- | --- | --- |
| CCCCCCCCCCCCCCOCCOP(=O)(O)OCCN [Production Example 5, 2-Tetradecyloxyethyl 2-aminoethyl phosphate] | 100 µg/mL | > 100 µg/mL | 8 to 10 mm | 4 µg/mL | 25 µg/mL | 25 µg/mL | – | MIC (Penicillium niger; [5]): 50 µg/mL; MIC [1, 6]: > 100 µg/mL; MIC (Botrytis cinerea): 50 µg/mL; MIC (Saccharomyces cerevisiae; [8]): 25 µg/mL; MIC [2, 9]: 25 µg/mL |
| CCCCCCCCCCCCCOCCOP(=O)([O-])OCC[N+](C)(C)C [Production Example 2, 2-Tridecyloxyethyl 2-trimethylammonioethyl phosphate] | 12.5 µg/mL | 6.25 µg/mL | > 20 mm | 0.4 µg/mL | 12.5 µg/mL | 6.25 µg/mL | – | MIC (Penicillium niger): 25 µg/mL; MIC [1]: 6.25 µg/mL; MIC (Botrytis cinerea; [10]): 12.5 µg/mL; HC50 [3]: ~80 µg/mL; MIC (Saccharomyces cerevisiae): 6.25 µg/mL; MIC [2]: 3.12 µg/mL |
| CCCCCCCCCCCCCCOCCOP(=O)([O-])OCC[N+](C)(C)CCCC(=O)OC [Production Example 11, 2-Tetradecyloxyethyl 2-[N,N-dimethyl-N-(3-methoxycarbonylpropyl)]ammonioethyl phosphate] | – | – | – | 4 µg/mL | – | – | 2.5 µg/mL | – |
| CCCCCCCC/C=C\CCCCCCCCOCCOP(=O)([O-])OCC[N+](C)(C)C [Production Example 3, 2-Oleyloxyethyl 2-trimethylammonioethyl phosphate] | 100 µg/mL | 6.25 µg/mL | > 20 mm | 0.4 µg/mL | 25 µg/mL | 1.56 µg/mL | – | MIC (Penicillium niger; [5]): 50 µg/mL; MIC [1]: 6.25 µg/mL; MIC (Botrytis cinerea; [10]): 3.12 µg/mL; MIC (Saccharomyces cerevisiae): 12.5 µg/mL; MIC [2]: 6.25 µg/mL |
| CCCCCCCCCCCCCCOCCOP(=O)([O-])OCC[N+](C)(C)CCCC(=O)O [Production Example 12, 2-Tetradecyloxyethyl 2-[N-(3-carboxypropyl)-N,N-dimethyl]ammonioethyl phosphate] | – | – | – | 0.4 µg/mL | – | – | 1.5 µg/mL | – |
| CCCCCCCCCCCCCCOCCOP(=O)([O-])OCC[n+]1ccccc1 [Production Example 9, 2-Tetradecyloxyethyl 2-pyridinioethyl phosphate] | – | – | > 20 mm | 4 µg/mL | – | – | 4.1 µg/mL | – |
| CCCCCCCCCCCCCCCOCCOP(=O)([O-])OCC[n+]1ccccc1 [Production Example 8, 2-Pentadecyloxyethyl 2-pyridinioethyl phosphate] | – | – | 10 to 20 mm | 4 µg/mL | – | – | 3.4 µg/mL | – |
| CCCCCCCCCCCCCCOCCOP(=O)([O-])OCC[N+](C)(C)C [Production Example 1, 2-Tetradecyloxyethyl 2-trimethylammonioethyl phosphate] | 50 µg/mL | 12.5 µg/mL | > 20 mm | 0.4 µg/mL | – | 3.12 µg/mL | 3.8 µg/mL | MIC (Penicillium niger): 12.5 µg/mL; MIC [1]: 3.12 µg/mL; MIC (Botrytis cinerea): 12.5 µg/mL; MIC (Aspergillus niger): 12.5 µg/mL; MIC (Saccharomyces cerevisiae): < 3.12 µg/mL; MIC [2]: 3.12 µg/mL |
| CCCCCCCCCCCCCCCCCCOCCOP(=O)(O)OCCN [Production Example 6, 2-Octadecyloxyethyl 2-aminoethyl phosphate] | – | – | 8 to 10 mm | > 4 µg/mL | – | – | 3 µg/mL | – |
| CCCCCCCCCCCCCCCOCCOP(=O)([O-])OCC[N+](C)(C)C [Production Example 7, 2-Pentadecyloxyethyl 2-trimethylammonioethyl phosphate] | – | – | 10 to 20 mm | ≤ 1 µg/mL | – | – | 1.2 µg/mL | – |
| CCCCCCCCCCCCOCCOP(=O)([O-])OCC[N+](C)(C)C [Production Example 4, 2-Dodecyloxyethyl 2-trimethylammonioethyl phosphate] | 100 µg/mL | 12.5 µg/mL | 10 to 20 mm | 0.4 µg/mL | 25 µg/mL | 12.5 µg/mL | – | MIC (Penicillium niger; [5]): 25 µg/mL; MIC [1, 6]: 25 µg/mL; MIC (Botrytis cinerea; [10]): 25 µg/mL; MIC (Saccharomyces cerevisiae; [8]): 25 µg/mL; MIC [2, 9]: 6.25 µg/mL |
| CCCCCCCCCCCCCCCCCCOCCOP(=O)([O-])OCC[n+]1ccccc1 [Production Example 10, 2-Octadecyloxyethyl 2-pyridinioethyl phosphate] | – | – | – | 4 µg/mL | – | – | 1.5 µg/mL | Average survival period of the remaining two of the test group (five mice) (MM46 mammarian carcinoma): 23 days; Survival period of three of the test group (five mice) (MM46 mammarian carcinoma): not less than 60 days; survival rate of the test group against the control group T/C (sarcoma 180): 310%; Average survival period (sarcoma 180; four days before ip transplantation of 1×10^5 cells, control 9.6 days): 29.8 days |
